Experiment [1] has as its target T1, HCV NS5B polymerase (His-tagged, C-terminal 21 amino acid deleted NS5B, HC-J4) (Hepatitis C virus genotype 1b, UniProt O92972).
T1 construct: The cDNA encoding NS5B amino acid 1-570 (HC-J4, genotype 1b); His tag (His6, from pET-21b) (C); made in house; host or cells: E. coli BL21 (DE3)
As to the kind of experiment: NS5b polymerase assay (biochemical RdRp assay, 3H-GTP incorporation, SPA beads). Particulars: NS5B Polymerase Assay IC50 (μM). Details: species or system HCV genotype 1b. Summed up:
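His-tagged C-terminal-21-aa-deleted NS5B (genotype 1b, HC-J4) at 200 nM was preincubated 15 min at RT with compound on 5′-biotinylated oligo(rG13)/poly(rC) template/primer before NTPs. Reaction with 600 nM GTP plus 0.1 μCi 3H-GTP and 5 mM MgCl2 in Tris pH 7.5 ran 2 h at 25 °C. Stopped with EDTA/SPA beads for incorporation counting.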

Experiment [2] relates to HCV replicon RNA replication in Huh-7 luc/neo (Huh-Luc) cells. As to the kind of experiment: HCV replicon assay (stable replicon cell reporter assay, luciferase read-out). The format is cell-based, HCV type 1b. Particulars: Hepatitis C virus, Huh-7, 72 h, read-out: Replicon Assay EC50 (μM), Huh-Luc cells, incubation of three days, luciferase activity. Summed up: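 Huh-7 cells stably carry a bicistronic HCV 1b NS3-NS5B subgenomic replicon with firefly luciferase and neo markers. Cells were plated with compound across a concentration range and incubated three days. Replication was measured as luciferase activity to give dose-response curves.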
On the technique in general: In antiviral work, replicon cells carry a viral genome segment that copies itself.

Data on 40 compounds can be found in US20090221559A1 (priority 2005, published 2009).

T1 sequence (O92972 2417-3000, looked up, stated change not applied): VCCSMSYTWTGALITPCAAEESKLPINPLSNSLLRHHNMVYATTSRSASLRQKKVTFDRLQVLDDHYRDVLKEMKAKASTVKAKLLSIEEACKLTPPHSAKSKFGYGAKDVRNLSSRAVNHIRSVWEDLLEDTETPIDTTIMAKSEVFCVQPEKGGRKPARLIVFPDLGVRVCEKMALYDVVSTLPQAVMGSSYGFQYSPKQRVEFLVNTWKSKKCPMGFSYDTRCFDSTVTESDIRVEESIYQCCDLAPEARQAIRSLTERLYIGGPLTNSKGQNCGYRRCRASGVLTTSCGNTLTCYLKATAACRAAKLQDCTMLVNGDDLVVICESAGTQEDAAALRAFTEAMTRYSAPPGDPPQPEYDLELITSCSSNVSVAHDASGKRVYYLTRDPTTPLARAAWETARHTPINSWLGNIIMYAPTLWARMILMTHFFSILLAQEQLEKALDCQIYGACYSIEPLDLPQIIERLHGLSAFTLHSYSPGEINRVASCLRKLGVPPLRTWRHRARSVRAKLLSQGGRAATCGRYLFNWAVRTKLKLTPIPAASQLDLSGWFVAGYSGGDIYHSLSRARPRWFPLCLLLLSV

Broadly, the IC50 is the midpoint of a concentration-inhibition curve. Low values mean higher potency, high ones lower potency. What is called EC50 is the concentration that produces a half-maximal response. Take `COc1ccc(C2CC(=O)C3=C(C2)Nc2ccccc2NC3c2ccc(C)c([N+](=O)[O-])c2)cc1` (centres unmarked) [compound 359]: the concentration for half-maximal inhibition (IC50) in experiment [1] was greater than 42.7 µM. For the same compound, the EC50 in experiment [2] came out at 7.33 µM.

In experiment [1], `COc1cccc(C2Nc3ccccc3NC3=C2C(=O)CC(c2ccc(Cl)cc2)C3)c1` (centres unmarked) [compound 360] registered an IC50 greater than 42.7 µM. The EC50 in experiment [2] worked out at 11.2 µM.

Turning to `O=C1CC(c2ccccc2)CC2=C1C(c1cccc(Oc3ccccc3)c1)Nc1ccccc1N2` (centres unmarked) [compound 361], in experiment [1], the 50% inhibitory concentration (IC50) was greater than 42.7 µM. Besides, the concentration giving a half-maximal response (EC50) in experiment [2] worked out at 6.65 µM.

Compound `CSc1ccc(C2Nc3ccccc3NC3=C2C(=O)CC(c2ccccc2)C3)cc1` (centres unmarked) [compound 362] gave an IC50 in experiment [1] of 30.6 µM. Moreover, the 50% effective concentration (EC50) in experiment [2] was determined as 19.3 µM.

Regarding `CCN(CC)c1ccc(C2Nc3ccccc3NC3=C2C(=O)CC(c2ccc(OC)cc2)C3)cc1` (centres unmarked) [compound 363], the IC50 in experiment [1] is greater than 42.7 µM. In addition, the EC50 in experiment [2] is 25.8 µM.

Compound `CN(C)c1ccc(C2Nc3ccccc3NC3=C2C(=O)CC(c2ccc(Cl)cc2)C3)cc1` (centres unmarked) [compound 364] registered a half-inhibitory concentration (IC50) in experiment [1] greater than 42.7 µM. Besides, the half-maximal effective concentration (EC50) in experiment [2] was 20.8 µM.

`O=C1CC(c2ccccc2)CC2=C1C(c1ccccc1OCc1ccccc1)Nc1ccccc1N2` (centres unmarked) [compound 365] displayed an IC50 in experiment [1] of 27.3 µM. Besides, the EC50 in experiment [2] was 5.24 µM.

In experiment [1], `O=C1CC(c2ccc(Cl)cc2)CC2=C1C(c1ccccc1OCc1ccccc1)Nc1ccccc1N2` (centres unmarked) [compound 366] returned an IC50 greater than 42.7 µM. For the same compound, in experiment [2], the EC50 is 5.31 µM.

With `CC(C)c1ccc(C2Nc3ccccc3NC3=C2C(=O)CC(c2ccccc2)C3)cc1` (centres unmarked) [compound 367], the IC50 in experiment [1] was greater than 42.7 µM. Further, the concentration giving a half-maximal response (EC50) in experiment [2] amounted to 24.6 µM.

Take `CSc1ccc(C2Nc3ccccc3NC3=C2C(=O)CC(c2ccc4c(c2)OCO4)C3)cc1` (centres unmarked) [compound 368]: the IC50 in experiment [1] was greater than 42.7 µM. For the same compound, in experiment [2], the EC50 amounted to 14.9 µM.

In experiment [1], `COc1ccc(C2CC(=O)C3=C(C2)Nc2ccccc2NC3c2ccccc2OC)cc1OC` (centres unmarked) [compound 369] registered a half-inhibitory concentration (IC50) greater than 42.7 µM. Besides, the EC50 in experiment [2] is 10 µM.

Compound `COc1ccc(C2CC(=O)C3=C(C2)Nc2ccccc2NC3c2ccccc2OC(C)C)cc1OC` (centres unmarked) [compound 370] showed an IC50 in experiment [1] greater than 42.7 µM. Further, the half-maximal effective concentration (EC50) in experiment [2] worked out at 3.43 µM.

The compound `COc1ccc(OC)c(C2Nc3ccccc3NC3=C2C(=O)CC(c2ccc(OC)c(OC)c2)C3)c1` (centres unmarked) [compound 371] had a 50% inhibitory concentration (IC50) in experiment [1] greater than 42.7 µM. The EC50 in experiment [2] came out at 3.74 µM.

In turn, `COc1ccc(C2CC(=O)C3=C(C2)Nc2ccccc2NC3c2ccc(OC)cc2OC)cc1` (centres unmarked) [compound 372] returned an IC50 in experiment [1] greater than 42.7 µM. Further, the concentration giving a half-maximal response (EC50) in experiment [2] turned out to be 1.94 µM.

Compound `O=C1CC(c2ccccc2)CC2=C1C(c1cccc(OCc3ccccc3)c1)Nc1ccccc1N2` (centres unmarked) [compound 373] had an IC50 in experiment [1] greater than 42.7 µM. For the same compound, the concentration giving a half-maximal response (EC50) in experiment [2] stood at 9.42 µM.

As to `COC(=O)c1ccc(C2Nc3ccccc3NC3=C2C(=O)CC(c2ccccc2)C3)cc1` (centres unmarked) [compound 374], in experiment [1], the IC50 is greater than 42.7 µM. For the same compound, in experiment [2], the 50% effective concentration (EC50) stood at 10.1 µM.

`COc1ccc(C2CC(=O)C3=C(C2)Nc2ccccc2NC3c2cc([N+](=O)[O-])ccc2Cl)cc1` (centres unmarked) [compound 375] gave a concentration for half-maximal inhibition (IC50) in experiment [1] greater than 42.7 µM. In experiment [2], the EC50 was 19.9 µM.

Consider `CCN(CC)c1ccc(C2CC(=O)C3=C(C2)Nc2ccccc2NC3c2ccccc2)cc1` (centres unmarked) [compound 376], for which, in experiment [1], the IC50 is greater than 42.7 µM. Besides, the EC50 in experiment [2] was 9.45 µM.

In experiment [1], `O=C1CC(c2ccc(Cl)cc2)CC2=C1C(c1ccc(C(F)(F)F)cc1)Nc1ccccc1N2` (centres unmarked) [compound 377] gave an IC50 greater than 42.7 µM. The concentration for a half-maximal effect (EC50) in experiment [2] is 4.46 µM.

In turn, `CCOc1cc(C2Nc3ccccc3NC3=C2C(=O)CC(c2ccc(OC)cc2)C3)cc(Br)c1O` (centres unmarked) [compound 378] showed a 50% inhibitory concentration (IC50) in experiment [1] greater than 42.7 µM. Also, the EC50 in experiment [2] was determined as 5.94 µM.

In turn, `CCOc1cccc(C2Nc3ccccc3NC3=C2C(=O)CC(c2ccc(Cl)cc2)C3)c1` (centres unmarked) [compound 379] had a half-inhibitory concentration (IC50) in experiment [1] greater than 42.7 µM. Besides, the EC50 in experiment [2] was 6.79 µM.

Take `O=C1CC(c2ccc(Cl)cc2)CC2=C1C(c1cccc(F)c1)Nc1ccccc1N2` (centres unmarked) [compound 380]: the IC50 in experiment [1] was greater than 42.7 µM. Moreover, in experiment [2], the EC50 is 8.63 µM.

In experiment [1], `COc1ccc(C2CC(=O)C3=C(C2)Nc2ccccc2NC3c2ccccc2C)cc1` (centres unmarked) [compound 381] displayed a half-maximal inhibitory concentration (IC50) greater than 42.7 µM. Moreover, the concentration for a half-maximal effect (EC50) in experiment [2] was 4.77 µM.

`CSc1ccc(C2Nc3ccccc3NC3=C2C(=O)CC(c2ccc(Cl)cc2)C3)cc1` (centres unmarked) [compound 382]: the IC50 in experiment [1] is greater than 42.7 µM. Also, the concentration giving a half-maximal response (EC50) in experiment [2] came to 16.7 µM.

In experiment [1], `COc1ccc(C2CC(=O)C3=C(C2)Nc2ccccc2NC3c2ccccc2Cl)cc1` (centres unmarked) [compound 383] returned an IC50 greater than 42.7 µM. Besides, the concentration for a half-maximal effect (EC50) in experiment [2] was 17.3 µM.

For `COc1ccc(C2CC(=O)C3=C(C2)Nc2ccccc2NC3c2ccc(C)cc2)cc1` (centres unmarked) [compound 384], it took 4.58 µM to reach half-maximal inhibition in experiment [1] (IC50). In addition, the EC50 in experiment [2] came to 15.9 µM.

In experiment [1], `COc1ccc(C2CC(=O)C3=C(C2)Nc2ccccc2NC3c2ccc(OCc3ccccc3)c(OC)c2)cc1` (centres unmarked) [compound 385] displayed an IC50 greater than 42.7 µM. Moreover, the EC50 in experiment [2] amounted to 3.54 µM.

On to `CCOc1cc(C2Nc3ccccc3NC3=C2C(=O)CC(c2ccc(OC)cc2)C3)ccc1OC(C)=O` (centres unmarked) [compound 386], for which, in experiment [1], the IC50 was greater than 42.7 µM. Moreover, in experiment [2], the half-maximal effective concentration (EC50) was greater than 29.6 µM.

`COc1ccc(C2CC(=O)C3=C(C2)Nc2ccccc2NC3c2ccc([N+](=O)[O-])cc2)cc1` (centres unmarked) [compound 387] returned a 50% inhibitory concentration (IC50) in experiment [1] greater than 42.7 µM. Besides, the EC50 in experiment [2] is 5.56 µM.

In experiment [1], `COc1ccc(C2CC(=O)C3=C(C2)Nc2ccccc2NC3c2ccc(OCc3ccccc3)cc2)cc1` (centres unmarked) [compound 388] yielded an IC50 greater than 42.7 µM. Also, in experiment [2], the EC50 was found to be 6.35 µM.

Turning to `COc1ccc(C2CC(=O)C3=C(C2)Nc2ccccc2NC3c2ccc(Cl)c([N+](=O)[O-])c2)cc1` (centres unmarked) [compound 389], in experiment [1], the half-inhibitory concentration (IC50) was greater than 42.7 µM. Also, the EC50 in experiment [2] came out at 5.58 µM.

For the compound `COc1ccc(C2CC(=O)C3=C(C2)Nc2ccccc2NC3c2ccccc2Br)cc1` (centres unmarked) [compound 390], the IC50 in experiment [1] is greater than 42.7 µM. For the same compound, the half-maximal effective concentration (EC50) in experiment [2] worked out at 9.07 µM.

As to `COc1ccc(C2CC(=O)C3=C(C2)Nc2ccccc2NC3c2cccc(C)c2)cc1` (centres unmarked) [compound 391], in experiment [1], the concentration for half-maximal inhibition (IC50) was greater than 42.7 µM. For the same compound, the concentration giving a half-maximal response (EC50) in experiment [2] is 18.5 µM.

Compound `COc1ccc(C2CC(=O)C3=C(C2)Nc2ccccc2NC3c2cccc(O)c2)cc1` (centres unmarked) [compound 392] came in with a concentration for half-maximal inhibition (IC50) in experiment [1] greater than 42.7 µM. In experiment [2], the EC50 came out at 22.6 µM.

`CCOc1ccccc1C1Nc2ccccc2NC2=C1C(=O)CC(c1ccccc1)C2` (centres unmarked) [compound 393] came in with a concentration for half-maximal inhibition (IC50) in experiment [1] greater than 33.3 µM. Also, the EC50 in experiment [2] is 6.84 µM.

For `CCCOc1ccc(C2Nc3ccccc3NC3=C2C(=O)CC(c2ccc(OC)cc2)C3)cc1OC` (centres unmarked) [compound 394], the IC50 in experiment [1] is greater than 42.7 µM. Besides, the EC50 in experiment [2] came to 14.1 µM.

`Cc1ccc(C2Nc3ccccc3NC3=C2C(=O)CC(c2ccccc2Cl)C3)cc1` (centres unmarked) [compound 395] returned an IC50 in experiment [1] greater than 42.7 µM. Further, in experiment [2], the concentration for a half-maximal effect (EC50) came to 9.91 µM.

Turning to `O=C1CC(c2ccccc2)CC2=C1C(c1ccccc1[N+](=O)[O-])Nc1ccccc1N2` (centres unmarked) [compound 396], in experiment [1], the 50% inhibitory concentration (IC50) was greater than 42.7 µM. Moreover, the concentration for a half-maximal effect (EC50) in experiment [2] was found to be 11.3 µM.

Regarding `COc1ccc(C2CC(=O)C3=C(C2)Nc2ccccc2NC3c2cc(Br)c(O)c(OC)c2)cc1OC` (centres unmarked) [compound 397], the IC50 in experiment [1] is greater than 42.7 µM. Further, the half-maximal effective concentration (EC50) in experiment [2] came out at 6.13 µM.

The compound `COc1ccc(C2CC(=O)C3=C(C2)Nc2ccccc2NC3c2cc(OC)c(OC)cc2OC)cc1` (centres unmarked) [compound 398] returned an IC50 in experiment [1] greater than 42.7 µM. In experiment [2], the EC50 worked out at 10.9 µM.
